# Measurements published in patent publication US10664967B2, “Methods, systems, and apparatuses for quantitative analysis of heterogeneous biomarker distribution” (Ventana Medical Systems, Inc., priority 2014, dated 2020).
# System: SKBR3 cells
# Experiment: Phosphomarker expression in untreated vs drug treated FFPE SKBR3 cells (multiplexed QD spectral imaging, IF, immunoblot)
# Format: cell-based
# Settings: 250 nM, 24 hrs, MTIP, consistent with IF and immunoblot
# Experimental: Breast cancer cell line model SKBR3 and the prostate adenocarcinoma cell line model LNCaP were cultured in McCoy's 5A medium supplemented with 10% FBS. SKBR3 cells were treated with the ATP-competitive pan-AKT kinase inhibitor drug GSK690693 at low nanomolar concentration (250 nM) for 24 hrs for antibody validation studies. After drug treatment, cells were washed using cold 1×PBS, fixed in cold 10% Neutral Buffered Formalin and embedded in paraffin for sectioning and slide preparation.
# Protein samples from SKBR3 cells were prepared by denaturing cell lysate in an equal volume of Laemmli sample buffer (Biorad, Hercules, Calif.) with 0.5 M dithiothreitol at 100° C. for 5 min. Proteins were separated by SDS-PAGE, transferred to polyvinylidene difluoride membranes, blotted with primary antibodies and detected with horseradish peroxidase-conjugated secondary antibodies. Protein bands were detected using ECL (Thermo Scientific).
# Immunostaining for fluorescence spectral imaging was performed on FFPE specimens of SKBR3 cells and tumor tissue on a Benchmark XT autostainer (Ventana Medical Systems, Tucson, Ariz.), to evaluate phosphoprotein staining with the hapten-anti-hapten chemistry in FFPE cell and tumor specimens. All FFPE specimens (cell models, xenograft or tumor tissues) were subjected to automated deparaffinization in EZPREP buffer (VMSI Cat #950-102), and cell conditioning with CC1 buffer (VMSI Cat #950-124) for 90 min prior to antibody incubations. FFPE specimens were incubated with a single or a cocktail of hapten-conjugated primary antibodies (pS6:BF, pAKT 5473:DIG, peIF4G:TS, pPRAS40:NP, pERK 1/2:NCA, pAKT T308:DNP at 5, 15, 20, 20, 30, 12.5 μg/mL respectively) at 37° C. for 32 minutes. Following the primary antibody incubation step, samples were incubated by appropriate combination of secondary anti-hapten antibody QD conjugates (anti-BF:QD525, anti-DIG:QD565, anti-TS:QD585, anti-NP:[…], anti-NCA:QD625, anti-DNP:QD655 at 40, 50, 50, 70, 40, 30 nM concentrations respectively) at 37° C. for 32 minutes. Following automated staining with antibodies, samples were dehydrated in ethanol series, followed by xylene, and mounted using Cytoseal 60 (Thermo Scientific).
# The specificity of the antibodies selected was tested using a series of IHC experiments using FFPE cell and xenograft model systems (FIGS. 14 15 and 16). The anti-phosphomarker hapten conjugated primary and anti-hapten monoclonal secondary functionality was tested using the SKBR3 cell line, a well-established breast cancer model of PI3K pathway activation (Englemen PNAS ref). SKBR3 cells were either untreated or treated with the AKT small molecule inhibitor GSK690693. The two cell populations were prepared as FFPE blocks and stained using the anti-phosphomarker primaries, followed by anti-hapten secondary antibodies conjugated to HRP to permit contrast through DAB. This permitted verification of the hapten-anti-hapten labeling scheme (FIG. 14; the DAB stain pattern was consistent with primary-anti-species secondary staining performed in parallel).
# A multiplexed experiment was then conducted using the combined markers followed by hyperspectral imaging and processing to separate the signal contributions for each marker (FIG. 14b). For additional comparison, SKBR3 cell lysates were subjected to immunoblotting with all six phosphoantibodies (FIG. 14c). […] The similarity of phosphomarker expression changes upon drug treatment detected using MTIP to that observed in the IF and immunoblot staining validate the specificity and functionality of the conjugated antibodies used in the multiplexed assay context.
structure (smiles),measurement,value
CCn1c(-c2nonc2N)nc2c(C#CC(C)(C)O)ncc(OC[C@H]3CCCNC3)c21 [GSK690693],pAKT308 expression change following drug treatment,relative increase in expression
same,pAKT473 expression change following drug treatment,relative increase in expression
same,pERK expression change following drug treatment,reduction in the expression
same,pPRAS40 expression change following drug treatment,reduction in the expression
same,pS6 expression change following drug treatment,reduction in the expression
same,peIF4G expression change following drug treatment,did not show any significant change in the expression
